pIC50: −log10 of the molar value. Like-named read-outs stand apart in the source and are kept apart here.
Assays:
[1] = test system: Methicillin Resistant Staphylococcus aureus strain USA 300 (NRS384); assay: MIC by broth micro-dilution (CLSI), S. aureus; type: cell-based; conditions: MRSA USA 300 (NRS384), cation adjusted Mueller Hinton Broth + 0.002% Tween-80, 35° C., 22 hours; for MIC: Staphylococcus aureus, MRSA / NRS 384 / USA300, read-out: MIC (μg/mL) S. aureus
Method: (§1) In vitro antimicrobial activity of each compound was determined by measuring minimal inhibitor concentrations (MICs) using the broth micro-dilution technique as approved by the Clinical and Laboratory Standards Institute (CLSI) (Methods for Dilution Antimicrobial Susceptibility Tests for Bacteria that Grow Aerobically; Approved Standard—Eighth Edition. CLSI document M07-A8. Wayne, Pa.: Clinical and Laboratroy Standards; 2009). Antibacterial activity was measure against two strains of bacteria: a Methicillin Resistant Staphylococcus aureus strain USA 300 (NRS384) and a strain of Escherichia coli MC4100 harboring the IMP4213, which results in increased outer-membrane permeability (B Martin and Silhavy T. Imp/OstA is required for cell envelope biogenesis in Escherichia coli. (2002) Molecular Microbiology, 45(5), 1289-1302). Cells were inoculated onto plates of Trypyticase Soy Agar or Luria Agar respectively and grown at 35° C. for 20 hours. Inocula suspensions were prepared by scraping cells into 1 ml of testing media (cation adjusted Mueller Hinton Broth supplemented with 0.002% v/v Tween-80) and diluting to a final OD600 nm of 0.01.
Test compounds were prepared in DMSO at a concentration of 10 mg/ml. These compound stocks were diluted into testing media at a concentration of 64 μg/ml and serial 2-fold dilutions were made in the same media, in 96-well U bottom microtiter dishes, for a total of 10 compound concentrations. Inocula suspensions were added to the 2-fold serial dilutions of test compounds to a final density of OD OD600 nm of 0.0005 and incubated at 35° C. for 22 hours.

E. coli SPase = molecular target: T1, E. coli SPase (Escherichia coli, UniProt P00803); assay: SPase enzyme inhibition assay, fluorogenic peptide substrate, E. coli; type: biochemical; conditions: for IC50: 3 nM E. coli SPase, 20 μM substrate, 10 minutes pre-incubation, room temperature, read-out: IC 50 (nM) E. coli
T1 construct: Full length His-tagged E. coli and S. aureus SPase proteins were expressed in E. coli BL21; His tag; made in house; host or cells: E. coli BL21 (DE3)
Method: (§2) Briefly, for expression of E. coli SPase, saturated overnight cultures grown in 20 ml of Luria-Bertani medium supplemented with ampicillin were subcultures into 1.5 L of Luria-Bertani, and shaken at 37° C. until an optical density at 600 nm of 0.4-0.5 was achieved. […] S. aureus SPase was expressed and purified similarly, with the following exceptions. […] Resin bound protein was washed in a similar buffer containing 1% Elugent in place of Triton X-100 prior to protein elution in wash buffer supplemented with 300 mM imidazole. […] All protein concentrations were determined by BCA assay.
(§3) Enzyme master solution was prepared by diluting Escherichia coli or Staphylococcus aureus SPase protein into reaction buffer to a final concentration of 3 nM or 10 nM respectively. Reaction buffer consisted of 20 mM NaKHPO4 pH 7.4, 100 mM NaCl, and 1% v/v Elugent™ detergent. Reactions were initiated by the addition of substrate to a final concentration of 20 μM. Reaction progress was monitored by measuring the increase in fluorescence signal (excitation at 314 nm, emission at 416 nm) using a SpectraMax M2 fluorescence microplate reader. […] Three-folder serial dilutions of test compounds, starting at 10 μM, were prepared in enzyme mix solution and incubated at room temperature for 10 minutes. Following this incubation, fluorogenic substrate was added to a final concentration of 20 μM and the increase in fluorescence, corresponding to substrate cleavage, was monitored continuously at room temperature for 1 hour. Initial reaction rates were calculated based on the rate of increase in fluorescence during the reaction. Reaction rates were plotted as a function of compound concentration, and IC50 values were determined nonlinear regression analysis (SoftMaxPro 5.4, Molecular Devices™) of the sigmoidal dose-response curve.

S. aureus SPase = molecular target: T2, S. aureus SPase (Staphylococcus aureus, UniProt P0A070); assay: SPase enzyme inhibition assay, fluorogenic peptide substrate, S. aureus; type: biochemical
T2 construct: Full length His-tagged E. coli and S. aureus SPase proteins were expressed in E. coli BL21; His tag; made in house; host or cells: E. coli BL21 (DE3)
T2 sequence (P0A070 1-191): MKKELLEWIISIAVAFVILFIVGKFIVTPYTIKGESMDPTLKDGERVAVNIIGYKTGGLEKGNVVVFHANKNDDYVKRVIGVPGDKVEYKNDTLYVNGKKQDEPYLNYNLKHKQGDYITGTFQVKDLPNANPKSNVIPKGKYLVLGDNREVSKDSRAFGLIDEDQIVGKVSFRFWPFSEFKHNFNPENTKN
Method: as §2, §3

[2] = test system: Escherichia coli MC4100 harboring the IMP4213; assay: MIC by broth micro-dilution (CLSI), E. coli; type: cell-based; conditions: E. coli MC4100 IMP4213 (increased outer-membrane permeability); cation adjusted Mueller Hinton Broth + 0.002% Tween-80; 35° C., 22 hours
Method: as §1
Test compounds were prepared in DMSO at a concentration of 10 mg/ml. […]

T1 sequence (P00803 whole entry): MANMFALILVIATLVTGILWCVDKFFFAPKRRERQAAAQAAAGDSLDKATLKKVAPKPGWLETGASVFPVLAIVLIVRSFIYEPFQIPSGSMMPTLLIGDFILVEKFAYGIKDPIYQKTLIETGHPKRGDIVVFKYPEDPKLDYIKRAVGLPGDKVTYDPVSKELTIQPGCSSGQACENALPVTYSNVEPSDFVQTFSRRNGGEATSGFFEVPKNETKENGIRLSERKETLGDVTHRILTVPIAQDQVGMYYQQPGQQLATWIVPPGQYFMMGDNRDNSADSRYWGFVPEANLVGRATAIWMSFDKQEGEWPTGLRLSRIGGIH

SMILES | MIC [1] | IC50 (E. coli SPase) | pIC50 (S. aureus SPase) | pIC50 (E. coli SPase) | MIC (μg/mL) E. coli [2] | MIC (μg/mL) S. aureus [1] | IC50 (S. aureus SPase; 10 nM S. aureus SPase, 20 μM substrate, 10 minutes pre-incubation, room temperature; read-out: IC 50 (nM) S. aureus) | IC50 (S. aureus SPase; read-out: IC 50 (nM) S. aureus; 10 nM S. aureus SPase, 20 μM substrate, 10 minutes pre-incubation, room temperature)
CCCCc1ccc(-c2ccc(C(=O)N[C@@H](CCCCN)C(=O)N[C@H]3COCCCCOCC[C@@H](C(=O)N[C@@H](C)B4O[C@@H]5C[C@@H]6C[C@@H](C6(C)C)[C@]5(C)O4)NC(=O)[C@H](C)NC3=O)cc2)cc1 [Compound 207] | 1.3 µg/mL | 21 nM | 6.68 | – | – | – | – | –
CCCCCCCC(=O)N[C@@H](CCCCN)C(=O)N(C)[C@@H]1C(=O)N[C@@H](C)C(=O)N[C@H](C(=O)NCB2O[C@@H]3C[C@@H]4C[C@@H](C4(C)C)[C@]3(C)O2)Cc2ccc(O)c(c2)-c2cc1ccc2O [Compound 126] | 32 µg/mL | – | 6.89 | 7.89 | – | – | – | –
CCCCc1ccc(-c2ccc(C(=O)NC(C)CC(=O)N[C@@H](CCCCN)C(=O)N(C)[C@@H]3C(=O)N[C@@H](C)C(=O)N[C@H](C(=O)O)Cc4ccc(O)c(c4)-c4cc3ccc4O)cc2)cc1 (stereo partly shown) [Compound 106] | 2 µg/mL | 2.9 nM | 8.06 | – | – | – | – | –
CCCCc1ccc(-c2ccc(C(=O)N[C@H](C)C(=O)N[C@@H](CCCCN)C(=O)N(C)[C@@H]3C(=O)N[C@@H](C)C(=O)N[C@H](C(=O)O)Cc4ccc(O)c(c4)-c4cc3ccc4O)cc2)cc1 [Compound 102] | 10 µg/mL | 11 nM | 6.55 | – | – | – | – | –
CCCCc1ccc(-c2ccc(C(=O)N[C@@H](CCCCN)C(=O)N(C)[C@@H]3C(=O)N[C@@H](C)C(=O)N[C@H](C(=O)N[C@@H](C)B4O[C@@H]5C[C@@H]6C[C@@H](C6(C)C)[C@]5(C)O4)CCCCc4cc3ccc4OC)cc2)cc1 [Compound 209] | 4 µg/mL | – | 5.43 | 7.08 | – | – | – | –
CCCCc1ccc(-c2ccc(C(=O)NC[C@@H](N)C(=O)N[C@@H](CCCCN)C(=O)N(C)[C@@H]3C(=O)N[C@@H](C)C(=O)N[C@H](C(=O)O)Cc4ccc(O)c(c4)-c4cc3ccc4O)cc2)cc1 [Compound 109] | > 64 µg/mL | 11 nM | 7.82 | – | – | – | – | –
CCCCc1ccc(-c2ccc(C(=O)NCC(C)C(=O)N[C@@H](CCCCN)C(=O)N(C)[C@@H]3C(=O)N[C@@H](C)C(=O)N[C@H](C(=O)O)Cc4ccc(O)c(c4)-c4cc3ccc4O)cc2)cc1 (mixture of isomers) [Compound 104] | 4 µg/mL | 3.7 nM | 7.92 | – | – | – | – | –
C[C@@H]1NC(=O)[C@@H](N(C)C(=O)[C@H](CCCCN)NC(=O)c2ccc(-c3ccc(Cl)cc3)cc2)c2ccc(O)c(c2)-c2cc(ccc2O)C[C@@H](C(=O)N[C@@H](C)C=O)NC1=O [Compound 134] | 10 µg/mL | 0.8 nM | 8.09 | – | – | – | – | –
CCCCc1ccc(-c2ccc(C(=O)NCC(C)C(=O)N[C@@H](CCN)C(=O)N(C)[C@@H]3C(=O)N[C@@H](C)C(=O)N[C@H](C(=O)O)Cc4ccc(O)c(c4)-c4cc3ccc4O)cc2)cc1 (single isomer, unassigned) [Compound 115] | – | 630 nM | – | – | >64 µg/mL | 64 µg/mL | 1900 nM | –
C[C@@H]1NC(=O)[C@@H](N(C)C(=O)[C@H](CCCCN)NC(=O)c2ccc(-c3ccc(Cl)cc3)cc2)c2ccc(O)c(c2)-c2cc(ccc2O)C[C@@H](C(=O)N[C@@H](C)C(=O)N2CCC[C@H]2C(N)=O)NC1=O [Compound 132] | 6.1 µg/mL | – | 8.23 | 7.59 | – | – | – | –
CCCCc1ccc(-c2ccc(C(=O)N[C@@H](CCCCN)C(=O)N[C@H]3COCCCCC[C@@H](C(=O)N[C@@H](C)B4OC5C[C@@H]6C[C@@H](C6(C)C)[C@]5(C)O4)NC(=O)[C@H](C)NC3=O)cc2)cc1 (stereo partly shown) [Compound 204] | 1.4 µg/mL | 25 nM | – | – | – | – | – | 250 nM
CCCCc1ccc(-c2ccc(C(=O)NCCC(=O)N(C)[C@@H]3C(=O)N[C@@H](C)C(=O)N[C@H](C(=O)O)Cc4ccc(O)c(c4)-c4cc3ccc4O)cc2)cc1 [Compound 112] | > 64 µg/mL | 850 nM | 5.14 | – | – | – | – | –
CCCCc1ccc(-c2ccc(C(=O)NC[C@@H](C)C(=O)N[C@@H](CCCCN)C(=O)N(C)[C@@H]3C(=O)N[C@@H](C)C(=O)N[C@H](C(=O)O)Cc4ccc(O)c(c4)-c4cc3ccc4O)cc2)cc1 [Compound 103] | 2.1 µg/mL | 1.3 nM | 8.10 | – | – | – | – | –
CCCCc1ccc(-c2ccc(CC(=O)NCCC(=O)N[C@@H](CCCCN)C(=O)N(C)[C@@H]3C(=O)N[C@@H](C)C(=O)N[C@H](C(=O)O)Cc4ccc(O)c(c4)-c4cc3ccc4O)cc2)cc1 [Compound 101] | 6.3 µg/mL | 5.4 nM | 7.52 | – | – | – | – | –
CCCCCCCCCCCCCC(=O)NCCC(=O)N[C@@H](CCCCN)C(=O)N(C)[C@@H]1C(=O)N[C@@H](C)C(=O)N[C@H](C(=O)O)Cc2ccc(O)c(c2)-c2cc1ccc2O [Compound 105] | 0.63 µg/mL | 1.3 nM | 7.80 | – | – | – | – | –
CCCCc1ccc(-c2ccc(C(=O)NC(CCCCN)C(=O)N[C@H]3COCCCCOC[C@@H](C(=O)N[C@@H](C)B4O[C@@H]5C[C@@H]6C[C@@H](C6(C)C)[C@]5(C)O4)NC(=O)[C@H](C)NC3=O)cc2)cc1 (mixture of isomers) [Compound 206] | 4 µg/mL | 81 nM | 6.22 | – | – | – | – | –
CCCCc1ccc(-c2ccc(C(=O)NCC(=O)N[C@@H](CCCCN)C(=O)N(C)[C@@H]3C(=O)N[C@@H](C)C(=O)N[C@H](C(=O)O)Cc4ccc(O)c(c4)-c4cc3ccc4O)cc2)cc1 [Compound 108] | 8 µg/mL | 2.4 nM | 6.96 | – | – | – | – | –
CCCCc1ccc(-c2ccc(C(=O)NCC(C)C(=O)N[C@@H](CCCN)C(=O)N(C)[C@@H]3C(=O)N[C@@H](C)C(=O)N[C@H](C(=O)O)Cc4ccc(O)c(c4)-c4cc3ccc4O)cc2)cc1 (stereo partly shown) [Compound 113] | 4 µg/mL | 3.6 nM | 7.16 | – | – | – | – | –
CCCCc1ccc(-c2ccc(C(=O)NCC(C)C(=O)N[C@@H](CCN)C(=O)N(C)[C@@H]3C(=O)N[C@@H](C)C(=O)N[C@H](C(=O)O)Cc4ccc(O)c(c4)-c4cc3ccc4O)cc2)cc1 (single isomer, unassigned) [Compound 114] | 64 µg/mL | 730 nM | 5.66 | – | – | – | – | –
CCCCc1ccc(-c2ccc(C(=O)N[C@@H](CCCCN)C(=O)N(C)[C@@H]3C(=O)N[C@@H](C)C(=O)N[C@H](C(=O)N[C@@H](C)B4O[C@@H]5C[C@@H]6C[C@@H](C6(C)C)[C@]5(C)O4)Cc4ccc(O)c(c4)-c4cc3ccc4O)cc2)cc1 [Compound 121] | 0.71 µg/mL | 29 nM | 6.96 | – | – | – | – | –
CCCCCCCC(=O)N[C@@H](CCCCN)C(=O)N(C)[C@@H]1C(=O)N[C@@H](C)C(=O)N[C@H](C(=O)N[C@@H](C)B2O[C@@H]3C[C@@H]4C[C@@H](C4(C)C)[C@]3(C)O2)Cc2ccc(O)c(c2)-c2cc1ccc2O [Compound 125] | 23 µg/mL | 26 nM | 7.19 | – | – | – | – | –
